Here are results for one compound from patent publication US8846628B2, “Oral formulations of cytidine analogs and methods of use thereof” (Celgene Corporation, priority 2008, dated 2014).

“Also recorded” adds a separate entry of the source.

The subject of series [1] is patients with MDS or AML. The note with it: in vivo.
For series [2], the system named is patients with MDS or AML. Nature of the series: MTD study CL005: hematological response, IWG criteria. The format is in vivo, human. An excerpt:
Assessment of IWG criteria for certain patients in the MTD study is presented below in Table 10.

For series [3] the following is noted: in vivo.
Series [4] can be described thus: clinical. The note with it: human, in vivo.
Series [5] is described as follows: Rapid Aza Clinical Evaluation (RACE) study CL008: plasma PK. It is filed as in vivo. The note with it: human; for AUC(0-t) / AUC(0-inf): sc; for AUC(0-t): 75 mg/m^2, one subject (Formulation 4 cohort), SC 75 mg/m^2 (124 mg); for AUC(0-inf): SC 75 mg/m^2 (120 mg). How it is done: Several oral formulations were evaluated in this study. A “3+7” cohort of patients was enrolled in the study, i.e., three patients were initially tested per formulation, and the cohorts could increase in size up to ten patients. Cohorts were enrolled in parallel.

For `Nc1ncn([C@@H]2O[C@H](CO)[C@@H](O)[C@H]2O)c(=O)n1` [azacitidine, 4-amino-1-β-D-ribofuranosyl-1,3,5-triazin-2(1H)-one], the “dose limited toxicity (DLT)” value in series [1] is “none of the patients have shown dose limited toxicity (DLT)”. Besides, the “IWG Assessment” value in series [2] (Patient 02004 (MDS), SC cycle 1, then oral 120 mg x7d Formulation #1 Cycles 2-6, 180 mg x7d Cycles 7-12) is “morphologic complete response (CR); also recorded: Per IWG 2006 criteria, the patient achieved complete response (CR); also recorded: achieved morphologic complete response per the IWG AML criteria; also recorded: with regard to the ANC condition for the IWG 2000 CR criteria, the patient did not meet the criteria for a complete response; also recorded: CR per IWG 2006 (Days 45-98); also recorded: Morphologic CR per the IWG AML criteria (Diagnosis is MDS)”; in series [2] (Patient 02007 (CMML), Cohort 4, oral 240 mg Formulation #3 after SC cycle 1, per IWG 2000 criteria), “HI-P major improvement per IWG 2000 (Days 35-202)”; in series [2] (Patient 02008 (MDS RAEB-1), Cohort 4, oral 240 mg Formulation #3 after SC cycle 1) it was “HI-P major improvement per IWG 2000 (Days 34-110)”; in series [2] (Patient 02009 (MDS RAEB-2), Cohort 4, oral 240 mg Formulation #3 after SC cycle 1), “Marrow CR (Days 7-111+) per IWG 2006”; in series [2] (Patient 02011 (MDS RAEB-1), Cohort 5, oral 300 mg Formulation #3 after SC cycle 1, per IWG 2006 criteria), “Marrow CR (Days 7-177+) per IWG 2006”; in series [2] (Patient 02011 (MDS RAEB-1), Cohort 5, oral 300 mg Formulation #3 after SC cycle 1, per revised IWG AML criteria), “Morphologic CR per the revised IWG AML criteria on Day 21”. Further, the platelets versus baseline result in series [2] (Patient 02007, oral azacitidine starting with cycle 2 (Formulation #3, 240 mg)) is “increase in platelets above the baseline levels”. For the same compound, the “dose proportionality of exposure” value in series [3] is given as “did not result in dose-proportional increase in exposure”. The AUC in series [4] (po, 180 mg) is 330 ng·h/mL; in series [4] (sc, 75 mg/m2), 1000 ng·h/mL; in series [5] (75 mg/m^2, one subject (Formulation 6 cohort), following SC dosing, read-out: AUC (rounded)) it was roughly 1700 ng·h/mL. In series [4] (po, 180 mg), this compound returned a bioavailability of 30%. The AUC(0-inf) was found to be 1210 ng·h/mL in series [4] (sc, 75 mg/m2, AUC(0-inf)); 1720 ng·h/mL in series [5] (75 mg/m^2, one subject (Formulation 6 cohort), day 1); 1640 ng·h/mL in series [5] (75 mg/m^2, one subject (Formulation 6 cohort), day 15). The area under the curve AUC(0-t) amounted to 1140 ng·h/mL in series [4] (sc, 75 mg/m2, AUC(0-t)); 2390 ng·h/mL in series [5] (day 1); 2440 ng·h/mL in series [5] (day 15). In addition, the Cmax in series [4] (sc, 75 mg/m2, Cmax) was determined as 697 ng/mL. Besides, the Tmax in series [4] (sc, 75 mg/m2, Tmax) was found to be 0.51 h. This compound also showed a half-life in series [4] (sc, 75 mg/m2, t½) of 1.73 h.

Usually AUC stands for the area under the concentration-time curve, a measure of exposure. The term bioavailability denotes dose-corrected exposure relative to a reference, in per cent. Usually AUC(0-inf) stands for the area under the concentration-time curve extrapolated to infinity. For orientation: AUC(0-t) means the area under the concentration-time curve up to a stated or last time point. Lower therefore signals less exposure. One may read the Cmax as the peak of the concentration-time curve. For orientation: Tmax means the time from dosing to the highest level. One may read the half-life as the time in which the quantity being followed falls by half.
